Experimental data: the supplement of paper PMC11061612

How the values were obtained:
[1] = test system: HCC1937 (Breast Carcinoma); assay: combination Emax (second highest fraction inhibited in the dose matrix, 72 h); higher = more inhibition; extreme values may be limits of the assay
In short: (§1)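 Cell lines in DMEM/F12 or RPMI with 10% FBS were plated in 1536-well plates, held 24 hours at 37°C, 5% CO2, then given two-drug dose matrices for 72 hours (DMSO typically 0.2%). Viability was read by CellTiter-Glo 2.0 luminescence and scaled as inhibition from 0 (vehicle wells) to 1 (blank wells). Combination Emax is the second-highest inhibition in the matrix; Bliss excess is observed combination effect minus expected EA + EB − EA·EB, EA and EB being single-agent effects.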

Hey (Ovarian Carcinoma) [2] = assay: as above
In short: as §1

[3] = test system: LC-1-sq (Squamous Cell Lung Carcinoma); assay: as above
In short: as §1

[4] = test system: NCI-H1092 (Small Cell Lung Carcinoma); assay: as above
In short: as §1

[5] = test system: KOPN-8 (B-Lymphoblastic Leukemia); assay: as above
In short: as §1

[6] = test system: OACM5-1 (Esophageal Adenocarcinoma); assay: as above
In short: as §1

[7] = test system: G-401 (Other Solid Carcinomas); assay: as above
In short: as §1

EW-1 (Ewing's Sarcoma) [8] = assay: as above
In short: as §1

[9] = test system: NCI-H650 (Lung Adenocarcinoma); assay: as above
In short: as §1

[10] = test system: HCC2998 (Colorectal Carcinoma); assay: as above
In short: as §1

[11] = test system: NCI-H2122 (Lung Adenocarcinoma); assay: as above
In short: as §1

[12] = test system: HCC1500 (Breast Carcinoma); assay: as above
In short: as §1

[13] = test system: ALL-SIL (T-Lymphoblastic Leukemia); assay: as above
In short: as §1

[14] = test system: EJM (Plasma Cell Myeloma); assay: as above
In short: as §1

[15] = test system: CADO-ES1 (Ewing's Sarcoma); assay: as above
In short: as §1

[16] = test system: NCI-H1838 (Lung Adenocarcinoma); assay: as above
In short: as §1

[17] = test system: HCC1937 (Breast Carcinoma); assay: Bliss excess, mean over the matrix (fraction); higher = more synergy
In short: as §1

Hey (Ovarian Carcinoma) [18] = assay: as above
In short: as §1

[19] = test system: LC-1-sq (Squamous Cell Lung Carcinoma); assay: as above
In short: as §1

[20] = test system: NCI-H1092 (Small Cell Lung Carcinoma); assay: as above
In short: as §1

[21] = test system: KOPN-8 (B-Lymphoblastic Leukemia); assay: as above
In short: as §1

[22] = test system: OACM5-1 (Esophageal Adenocarcinoma); assay: as above
In short: as §1

[23] = test system: G-401 (Other Solid Carcinomas); assay: as above
In short: as §1

EW-1 (Ewing's Sarcoma) [24] = assay: as above
In short: as §1

[25] = test system: NCI-H650 (Lung Adenocarcinoma); assay: as above
In short: as §1

[26] = test system: HCC2998 (Colorectal Carcinoma); assay: as above
In short: as §1

[27] = test system: NCI-H2122 (Lung Adenocarcinoma); assay: as above
In short: as §1

[28] = test system: HCC1500 (Breast Carcinoma); assay: as above
In short: as §1

[29] = test system: ALL-SIL (T-Lymphoblastic Leukemia); assay: as above
In short: as §1

[30] = test system: EJM (Plasma Cell Myeloma); assay: as above
In short: as §1

[31] = test system: CADO-ES1 (Ewing's Sarcoma); assay: as above
In short: as §1

[32] = test system: NCI-H1838 (Lung Adenocarcinoma); assay: as above
In short: as §1
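Wherever Bliss excess, mean over the matrix is given: after 72 h of two-drug dosing.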

## CC(=O)c1c(C)c2cnc(Nc3ccc(N4CCNCC4)cn3)nc2n(C2CCCC2)c1=O [Palbociclib] + CN(CC[C@H](CSC1=CC=CC=C1)NC2=C(C=C(C=C2)S(=O)(=O)NC(=O)C3=CC=C(C=C3)N4CCC(CC4)[C@H](C5=CC=CC=C5C6=CC=C(C=C6)Cl)O)S(=O)(=O)C(F)(F)F)CCO [AZD4320] (first compound max 10 µM, 7x7, partner max 1 µM)
[1]
  combination Emax: 0.504
Hey (Ovarian Carcinoma) [2]
  combination Emax: 0.357
[3]
  combination Emax: 0.224
[4]
  combination Emax: 0.915
[5]
  combination Emax: 1
[6]
  combination Emax: 0.61
[7]
  combination Emax: 0.974
EW-1 (Ewing's Sarcoma) [8]
  combination Emax: 0.884
[9]
  combination Emax: 0.172
[10]
  combination Emax: 0.934
[11]
  combination Emax: 0.684
[12]
  combination Emax: 0.985
[13]
  combination Emax: 1
[14]
  combination Emax: 0.56
[15]
  combination Emax: 0.76
[16]
  combination Emax: 0.348
[17]
  Bliss excess: -0.0676
Hey (Ovarian Carcinoma) [18]
  Bliss excess: -0.105
[19]
  Bliss excess: -0.0469
[20]
  Bliss excess: -0.0197
[21]
  Bliss excess: 0.0277
[22]
  Bliss excess: 0.0021
[23]
  Bliss excess: 0.0091
EW-1 (Ewing's Sarcoma) [24]
  Bliss excess: -0.0009
[25]
  Bliss excess: -0.088
[26]
  Bliss excess: -0.0452
[27]
  Bliss excess: -0.0482
[28]
  Bliss excess: -0.0551
[29]
  Bliss excess: -0.0064
[30]
  Bliss excess: -0.0016
[31]
  Bliss excess: -0.149
[32]
  Bliss excess: -0.0748

## COc1nnc2ccc(N3CCC(c4ccc(OCCN5CCN(C)C(=O)[C@H]5C)cc4)CC3)nn12 [AZD5153] + CN(CC[C@H](CSC1=CC=CC=C1)NC2=C(C=C(C=C2)S(=O)(=O)NC(=O)C3=CC=C(C=C3)N4CCC(CC4)[C@H](C5=CC=CC=C5C6=CC=C(C=C6)Cl)O)S(=O)(=O)C(F)(F)F)CCO [AZD4320] (first compound max 1 µM, 7x7, partner max 1 µM)
[1]
  combination Emax: 0.396
Hey (Ovarian Carcinoma) [2]
  combination Emax: 0.562
[3]
  combination Emax: 0.715
[4]
  combination Emax: 0.924
[5]
  combination Emax: 1
[6]
  combination Emax: 0.698
[7]
  combination Emax: 0.806
EW-1 (Ewing's Sarcoma) [8]
  combination Emax: 0.718
[9]
  combination Emax: 0.512
[10]
  combination Emax: 0.967
[11]
  combination Emax: 0.759
[12]
  combination Emax: 0.983
[13]
  combination Emax: 1
[14]
  combination Emax: 0.824
[15]
  combination Emax: 0.618
[16]
  combination Emax: 0.194
[17]
  Bliss excess: 0.0178
Hey (Ovarian Carcinoma) [18]
  Bliss excess: 0.0787
[19]
  Bliss excess: 0.0178
[20]
  Bliss excess: 0.0381
[21]
  Bliss excess: 0.0349
[22]
  Bliss excess: 0.0552
[23]
  Bliss excess: -0.026
EW-1 (Ewing's Sarcoma) [24]
  Bliss excess: 0.0591
[25]
  Bliss excess: 0.0209
[26]
  Bliss excess: -0.0002
[27]
  Bliss excess: -0.0537
[28]
  Bliss excess: -0.0002
[29]
  Bliss excess: 0.0324
[30]
  Bliss excess: 0.106
[31]
  Bliss excess: -0.0641
[32]
  Bliss excess: -0.0272

## C[C@@H](c1ccc2nccn2c1)n1nnc2ncc(-c3cnn(C)c3)nc21 [Savolitinib] + CN(CC[C@H](CSC1=CC=CC=C1)NC2=C(C=C(C=C2)S(=O)(=O)NC(=O)C3=CC=C(C=C3)N4CCC(CC4)[C@H](C5=CC=CC=C5C6=CC=C(C=C6)Cl)O)S(=O)(=O)C(F)(F)F)CCO [AZD4320] (first compound max 1 µM, 7x7, partner max 1 µM)
[1]
  combination Emax: 0.319
Hey (Ovarian Carcinoma) [2]
  combination Emax: 0.125
[3]
  combination Emax: 0.309
[4]
  combination Emax: 0.857
[5]
  combination Emax: 0.967
[6]
  combination Emax: 0.216
[7]
  combination Emax: 0.276
EW-1 (Ewing's Sarcoma) [8]
  combination Emax: 0.574
[9]
  combination Emax: 0.181
[10]
  combination Emax: 0.511
[11]
  combination Emax: 0.252
[12]
  combination Emax: 0.998
[13]
  combination Emax: 1
[14]
  combination Emax: 0.278
[15]
  combination Emax: 0.706
[16]
  combination Emax: 0.205
[17]
  Bliss excess: -0.0666
Hey (Ovarian Carcinoma) [18]
  Bliss excess: -0.0466
[19]
  Bliss excess: -0.059
[20]
  Bliss excess: -0.0878
[21]
  Bliss excess: 0.111
[22]
  Bliss excess: -0.0435
[23]
  Bliss excess: -0.0486
EW-1 (Ewing's Sarcoma) [24]
  Bliss excess: -0.0384
[25]
  Bliss excess: -0.0723
[26]
  Bliss excess: -0.0901
[27]
  Bliss excess: -0.0092
[28]
  Bliss excess: -0.0104
[29]
  Bliss excess: -0.0135
[30]
  Bliss excess: 0.0389
[31]
  Bliss excess: 0.0075
[32]
  Bliss excess: -0.01
